In patent US12612410B2 (CHILDREN'S HOSPITAL MEDICAL CENTER, priority 2020, dated 2026):

test system: MOLM14 (D835Y) cells; test: Combination drug screening with Venetoclax in MOLM14 (D835Y) cells; type: cell-based; set-up: key to Sum Excess HSA: negative = synergy, positive = antagonism with Venetoclax; relative score; settings: 10 × 10 dataset
Protocol: Combination drug therapy has the potential to produce enhanced effects with lower side effects not obtained using either agent alone, or beyond the additive effect of the different concentrations of the two different agents. To determine whether enhanced effects are observed in different drug combinations in the setting of FLT3 resistance, combination drug screening was performed as previously described (Mathews-Griner, L. A. et al., Proc. Nat. Acad. Sci., 2014, 111:2439-2454; Lin, G. L. et al., Sci. Trans. Med., 2019, 11:eaaw0064). Briefly, 10 nL of compounds were acoustically dispensed into 1536-well white polystyrene tissue culture-treated plates with an Echo 550 acoustic liquid handler (Labcyte). MOLM14 (D835Y) Cells were then added to compound-containing plates at a density of 500-cells/well in 5 μL of medium. A 10-point custom concentration range was used for all listed drugs. Plates were incubated for 48 hours at standard incubator conditions covered by a stainless steel gasketed lid to prevent evaporation. 48 h post compound addition, 3 μL of Cell Titer Glo (Promega) were added to each well and plates were incubated at room temperature for 15 minutes with the stainless-steel lid in place. Luminescence readings were taken using a Viewlux imager (PerkinElmer) with a 2 second exposure time per plate.
The sum excess HSA scores for Compounds 25, 31, 35, 50, 51, 80, 82, 97, 118, and 119 in Table 28 are used herein to quantitate drug interactions for enhanced pharmacological effects in the MOLM14 (D835Y) cell line. This is a FLT3-ITD cell line that harbors a FLT3 resistance mutation in the tyrosine kinase domain at position 835 (D835Y). More information on excess HSA scores can be found in Vlot, Anna H. C. et al., Drug Discovery Today, 2019, 24(12):2286-2298. […] However, different methodologies may yield different numerical scores, and different definitions of what constitutes a deviation from mere additivity vs true drug synergy. Table 28 summarizes the combination results of Compounds 25, 31, 35, 50, 51, 80, 82, 97, 118, and 119 with Venetoclax. A large negative sum excess HSA score indicates profound synergism with Venetoclax, whereas a positive excess HSA score indicates antagonism with Venetoclax in certain drug combinations.
The degree to which combination therapy has to potential to produce enhanced effects with lower side effects not obtained using either agent alone, or beyond the additive effect of the different concentrations of the two different agents depends on the nature of the drugs used in the combination, and the specific doses/concentrations at which they are ultimately used in the therapeutic regimen. A negative excess sum HSA score illustrates that the drug combination is better than either drug alone (at the concentrations being studied), and the sum excess HSA score is a measurement of the overall deviation from additivity that is observed across the entire matrix of concentrations studied. […] However, the utility in certain drug combinations vs others should not be distinguished based on cutoffs between excess sum HSA scores, because the score itself is only a relative indicator that is completely dependent on experimental design and is not an absolute number. Furthermore, the concept of what constitutes clinically meaningful drug synergy is something that is still being debated, not only between pharmacologists and physicians, but amongst pharmacologists themselves. The data in Table 28 illustrate that the nature of the combined effect is dependent on the characteristics of each individual compound, as not every compound produced a synergistic interaction in combination with Venetoclax.

Row | Compound | Interaction with Venetoclax
1 | FC(F)c1cn2c(-c3cccc(N[C@H]4CNCC[C@@H]4F)n3)cnc2cn1 [Compound 25, 6-(6-(difluoromethyl)imidazo[1,2-a]pyrazin-3-yl)-N-((3S,4S)-4-fluoropiperidin-3-yl)pyridin-2-amine] | Synergistic
2 | CC(C)(O)c1cn2c(-c3nc(N[C@H]4CNCC[C@@H]4F)c(F)cc3F)cnc2cn1 [Compound 35, 2-(3-(3,5-difluoro-6-(((3S,4S)-4-fluoropiperidin-3-yl)amino)pyridin-2-yl)imidazo[1,2-a]pyrazin-6-yl)propan-2-ol] | Antagonistic

same assay, conditions: combination with Venetoclax, 10 × 10 dataset, 48 hours

Row | Compound | Sum Excess HSA
3 | CC(O)(c1cn2c(-c3cccc(N[C@H]4CNCC[C@@H]4F)n3)cnc2cn1)C(F)(F)F (single isomer, unassigned) [Compound 80] | −261.7
4 | CC(O)(c1cn2c(-c3cccc(N[C@H]4CNCC[C@@H]4F)n3)cnc2cn1)C(F)(F)F (single isomer, unassigned) [Compound 82] | −155.8
5 | FC(F)c1cn2c(-c3cccc(N[C@H]4CNCC[C@@H]4F)n3)cnc2cn1 [Compound 25, 6-(6-(difluoromethyl)imidazo[1,2-a]pyrazin-3-yl)-N-((3S,4S)-4-fluoropiperidin-3-yl)pyridin-2-amine] | −834.6
6 | CC(C)(O)c1cn2c(-c3cccc(N[C@H]4CNCC[C@@H]4F)n3)cnc2cn1 [Compound 31, 2-(3-(6-(((3S,4S)-4-fluoropiperidin-3-yl)amino)pyridin-2-yl)imidazo[1,2-a]pyrazin-6-yl)propan-2-ol] | −150.3956
7 | CC(C)(O)c1cn2c(-c3nc(N[C@H]4CNCC[C@@H]4F)c(F)cc3F)cnc2cn1 [Compound 35, 2-(3-(3,5-difluoro-6-(((3S,4S)-4-fluoropiperidin-3-yl)amino)pyridin-2-yl)imidazo[1,2-a]pyrazin-6-yl)propan-2-ol] | 386.4
8 | F[C@H]1CNC[C@@H]1Nc1cccc(-c2cnc3cnc(C4CC4)cn23)n1 [Compound 50, 6-(6-cyclopropylimidazo[1,2-a]pyrazin-3-yl)-N-((3S,4S)-4-fluoropyrrolidin-3-yl)pyridin-2-amine] | −552
9 | F[C@H]1CCNC[C@@H]1Nc1cccc(-c2cnc3cnc(C4CC4)cn23)n1 [Compound 51, 6-(6-cyclopropylimidazo[1,2-a]pyrazin-3-yl)-N-((3S,4S)-4-fluoropiperidin-3-yl)pyridin-2-amine] | −644.5
10 | O=S1(=O)CCCN1c1cn2c(-c3cccc(N[C@H]4CNCC[C@@H]4F)n3)cnc2cn1 [Compound 97, 2-(3-(6-(((3S,4S)-4-fluoropiperidin-3-yl)amino)pyridin-2-yl)imidazo[1,2-a]pyrazin-6-yl)isothiazolidine 1,1-dioxide] | −171.7
11 | O=C1NCCN1c1cn2c(-c3cccc(N[C@H]4CNCC[C@@H]4F)n3)cnc2cn1 [Compound 118, 1-(3-(6-(((3S,4S)-4-fluoropiperidin-3-yl)amino)pyridin-2-yl)imidazo[1,2-a]pyrazin-6-yl)imidazolidin-2-one] | −550.9
12 | O=C1CCCN1c1cn2c(-c3cccc(N[C@H]4CNCC[C@@H]4F)n3)cnc2cn1 [Compound 119, 1-(3-(6-(((3S,4S)-4-fluoropiperidin-3-yl)amino)pyridin-2-yl)imidazo[1,2-a]pyrazin-6-yl)pyrrolidin-2-one] | −762
